Results taken from patent US20240032530A1, “BLOOD SAMPLER CONTAINING ANTI-PLATELET AGENT AND WATER-SOLUBLE MATRIX MATERIAL” (Radiometer Medical ApS, priority 2020, published 2024).

Tested on: platelets (PLT) in whole blood
Test: Whole blood stability: PLT concentration on Sysmex XN-9000 hematology analyzer
Format: cell-based, healthy volunteers
Details: FIG. 8; formulated with PVP (Mw 10′000)/Tris matrix, 1 μM in whole blood, with Hep brick or LiHep tube, analyzed within 6 hours, three donors
Description: For storage stability and whole blood stabilization testing, the tubes were sprayed with 10 μL each of the mixture (D) using an ExactaCoat from Sono-Tek for ultrasonic spraying. And tubes were evacuated after spraying in order to allow filling of 3 mL whole blood during blood drawing via venipuncture.
Tubes with sprayed anti-platelet agents Iloprost, Beraprost sodium and Treprostinil each formulated with a PVP (Mw 10′000)/Tris matrix were prepared by ultrasonic spraying as described above. Spraying was done into either 1) tubes with no additive and after spraying, a heparinized filter paper brick (Hep brick) was added to the tube; or 2) spraying was conducted into commercial Lithium Heparin tubes (LiHep). The formulations were prepared to achieve a final anti-platelet agent concentration of 1 μM in whole blood. After preparation, tubes were evacuated and lids closed in order to allow drawing of correct whole blood volume during venipuncture. Blood from three different healthy volunteers were drawn into prepared blood collection tubes and reference standard EDTA and Lithium Heparin (LiHep) tubes. Whole blood samples were analyzed with a Sysmex XN-9000 hematology analyzer within 6 hours after blood sample drawing.
The Y-axis is the normalized PLT concentration relative to the EDTA sample.

Compound | anti-platelet activity (normalized PLT concentration relative to the EDTA sample)
CC#CCC(C)[C@H](O)/C=C/[C@@H]1[C@H]2c3cccc(CCCC(=O)O)c3O[C@H]2C[C@H]1O (mixture of isomers) [Beraprost, Beraprost sodium] | as high as that of EDTA
CC#CCC(C)[C@H](O)/C=C/[C@@H]1[C@H]2C/C(=C/CCCC(=O)O)C[C@H]2C[C@H]1O (stereo partly drawn) [Iloprost, iloprost] | as high as that of EDTA
CCCCC[C@H](O)CC[C@@H]1[C@H]2Cc3cccc(OCC(=O)O)c3C[C@H]2C[C@H]1O [Treprostinil] | as high as that of EDTA
